According to patent publication EP0795330A1, “Medicament for the treatment of insomnia” (ELI LILLY AND COMPANY, priority 1996, dated 1997):

Columns and labels:
5-HT1C receptor = target: T1, 5-HT1C receptor (Homo sapiens, UniProt P28335); assay: pharmacological studies, 5-HT1C receptor activity
T1 sequence (P28335 33-458): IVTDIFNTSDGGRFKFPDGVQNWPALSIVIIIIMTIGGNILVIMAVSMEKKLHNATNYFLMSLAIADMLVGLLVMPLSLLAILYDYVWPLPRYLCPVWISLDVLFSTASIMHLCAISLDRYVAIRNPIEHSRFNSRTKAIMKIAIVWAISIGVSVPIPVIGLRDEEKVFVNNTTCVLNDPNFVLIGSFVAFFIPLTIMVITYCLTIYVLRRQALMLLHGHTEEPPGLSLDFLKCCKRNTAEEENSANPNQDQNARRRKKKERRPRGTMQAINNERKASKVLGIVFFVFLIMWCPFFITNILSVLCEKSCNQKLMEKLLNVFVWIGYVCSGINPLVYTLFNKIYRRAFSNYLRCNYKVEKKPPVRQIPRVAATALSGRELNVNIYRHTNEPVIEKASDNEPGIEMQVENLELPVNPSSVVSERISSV

[1] = detection of radiolabelled olanzapine in saliva; format: in vivo, patients
Method: For example, in the treatment of adult humans, dosages of from 5 to 25 mg per day may be used. A once a day dosage is normally sufficient. For treatment of insomnia, a dose range of from 5 to 100 mg, is suitable, while a dosage of from 5 to 25 mg per day is preferred.

Compound: Cc1cc2c(s1)Nc1ccccc1N=C2N1CCN(C)CC1 [olanzapine, 2-methyl-4-(4-methyl-l-piperazinyl)-10H-thieno[2,3-b][1,5] benzodiazepine]
- activity at the 5-HT1C receptor (5-HT1C receptor): active
- detection in the saliva [1]: can be detected in the saliva
